According to patent publication US8318746B2, “Nitrogen-containing five-membered heterocyclic compound” (Takeda Pharmaceutical Company Limited, priority 2007, dated 2012):

Assays:
[1] = molecular target: T1, GST-hLGK1 (GST added to the amino terminal of human liver GK) (Homo sapiens, UniProt P35557); assay: Measurement of GK activation value; format: biochemical; details: test compound final concentration 10 μmol/L; reaction rate divided by that of control group (50% DMSO without test compound); Mant-ATP substrate, D-glucose, 37° C., 60 min
T1 construct: with a BamHI site added to immediately before the initiation codon; made in house; host or cells: Escherichia coli BL21 (Stratagene), plasmid pGEX6P-2/hLGK1
T1 sequence (P35557 1-464 isoform P35557-3): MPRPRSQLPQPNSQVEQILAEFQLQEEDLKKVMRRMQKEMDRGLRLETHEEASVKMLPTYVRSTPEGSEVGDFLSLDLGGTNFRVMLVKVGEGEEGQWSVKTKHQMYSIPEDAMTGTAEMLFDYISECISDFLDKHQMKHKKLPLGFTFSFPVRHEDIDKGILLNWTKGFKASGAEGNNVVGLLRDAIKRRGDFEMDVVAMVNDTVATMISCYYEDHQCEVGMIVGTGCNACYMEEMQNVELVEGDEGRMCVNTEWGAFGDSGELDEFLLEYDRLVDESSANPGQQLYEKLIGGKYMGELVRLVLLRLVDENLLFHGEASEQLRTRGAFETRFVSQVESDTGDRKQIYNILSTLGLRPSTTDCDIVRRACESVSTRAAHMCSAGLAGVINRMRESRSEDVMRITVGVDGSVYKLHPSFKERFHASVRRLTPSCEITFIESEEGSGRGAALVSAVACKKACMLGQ
Protocol: To each well of a 384-well black plate (Nalge Nunc International K.K.) was added 5 μL of 50% dimethyl sulfoxide solution containing test compound diluted to 100 μmol/L. Then, GST-hLGK1 obtained in Reference Example 2A was diluted with measurement buffer (containing 50 mM HEPES (pH 7.4), 200 mM KCl, 5 mM MgCl2, 2.5 mM DTT and 50 μM 2′-(or-3′)—O—(N-methylanthraniloyl) adenosine 5′-triphosphate (Mant-ATP) (Jena BioScience)) to 6 μg/mL and 35 μL thereof was added to each well.
Each well was stood at 37° C. for 10 min, 25 mM D-glucose solution (10 μL) was added to start the reaction. The final concentration of the test compound was 10 μmol/L.
Each, well after the reaction was stood at 37° C. for 60 min, and the reaction was quenched by adding 25 μL of a quenching solution (containing 200 mM HEPES (pH 7.4), 20 mM MgCl2, 200 mM EDTA, 0.03% Triton-X 100, 0.3% Coating 3 reagent (Caliper Life Sciences, Inc.)).
2′-(or-3′)-O-(N-methylanthraniloyl)adenosine 5′-triphosphate (Mant-ATP, substrate) and Mant-ADP (reaction resultant product) were separated from each well after the reaction by a microchip type capillary electrophoresis apparatus 250 HTS (Caliper Life Sciences, Inc.). The reaction rate [(reaction resultant product peak height)/(reaction resultant product peak height+substrate peak height)×100(%)] was calculated from the ratio of the substrate peak height and reaction resultant product peak height obtained by fluorescence detection (excitation wavelength 355 nm, measurement wavelength 460 nm) and used as the index of GK activity.
As a control group, the reaction rate was calculated in the same manner as above except that “solution in 50% dimethyl sulfoxide (without test compound)” was used instead of “solution of test compound in 50% dimethyl sulfoxide”.
The reaction rate of the well (test compound addition group) added with the test compound was divided by the reaction rate of the control group and the obtained percentage was taken as the GK activation value (Emax) of the test compound.

Row | Compound | Emax at 10 µM [1] [%] | melting point [°C]
1 | O=S1(=O)CCN(Cc2ccc(-c3ccc(C(CC4CCOCC4)c4ccc(S(=O)(=O)C5CC5)cc4)[nH]3)nc2)CC1 (stereo not shown) [Example 63] | 154 | –
2 | Cc1cc(C(CC2CCCC2)c2ccc(S(C)(=O)=O)cc2)[nH]c1C(N)=O (stereo not shown) [Example 10, 5-{2-cyclopentyl-1-[4-(methylsulfonyl)phenyl]ethyl}-3-methyl-1H-pyrrole-2-carboxamide] | 193 | –
3 | Cn1ccnc1-c1ccc(C(CC2CCCC2)c2ccc(S(C)(=O)=O)cc2)[nH]1 (stereo not shown) [Example 4, 2-(5-{2-cyclopentyl-1-[4-(methylsulfonyl)phenyl]ethyl}-1H-pyrrol-2-yl)-1-methyl-1H-imidazole] | 227 | –
4 | CCCC(=O)c1[nH]c(C(CC2CCCC2)c2ccc(S(C)(=O)=O)cc2)nc1F (stereo not shown) [Example 17, 1-(2-{2-cyclopentyl-1-[4-(methylsulfonyl)phenyl]ethyl}-4-fluoro-1H-imidazol-5-yl)butan-1-one] | 188 | –
5 | CS(=O)(=O)c1ccc(C(CC2CCCC2)c2ncc(C(=O)C3CCC3)[nH]2)cc1 (stereo not shown) [Example 21, Cyclobutyl(2-{2-cyclopentyl-1-[4-(methylsulfonyl)phenyl]ethyl}-1H-imidazol-5-yl)methanone] | 157 | –
6 | O=S(=O)(c1ccc(C(CC2CCOCC2)c2ccc(-c3ncc(C(O)CO)s3)[nH]2)cc1)C1CC1 (stereo not shown) [Example 34, 1-[2-(5-{1-[4-(cyclopropylsulfonyl)phenyl]-2-(tetrahydro-2H-pyran-4-yl)ethyl}-1H-pyrrol-2-yl)-1,3-thiazol-5-yl]ethane-1,2-diol] | 178 | –
7 | CCOC(=O)c1[nH]c(C(CC2CCCC2)c2ccc(S(C)(=O)=O)cc2)cc1C (stereo not shown) [Example 8, Ethyl 5-{2-cyclopentyl-1-[4-(methylsulfonyl)phenyl]ethyl}-3-methyl-1H-pyrrole-2-carboxylate] | 225 | –
8 | CS(=O)(=O)c1ccc(C(CC2CCOCC2)c2ccc(-c3ccc(C(O)CO)cn3)[nH]2)cc1Cl (stereo not shown) [Example 91, 1-[6-(5-{1-[3-chloro-4-(methylsulfonyl)phenyl]-2-(tetrahydro-2H-pyran-4-yl)ethyl}-1H-pyrrol-2-yl)pyridin-3-yl]ethane-1,2-diol] | 142 | –
9 | O=S(=O)(c1ccc(C(CC2CCOCC2)c2ccc(-c3ccc(C(CO)CO)cn3)[nH]2)cc1)C1CC1 (stereo not shown) [Example 53, 2-[6-(5-{1-[4-(cyclopropylsulfonyl)phenyl]-2-(tetrahydro-2H-pyran-4-yl)ethyl}-1H-pyrrol-2-yl)pyridin-3-yl]propane-1,3-diol] | 148 | –
10 | CS(=O)(=O)c1ccc(C(CC2CCCC2)c2ccc(-c3nccs3)[nH]2)cc1 (stereo not shown) [Example 1, 2-(5-{2-cyclopentyl-1-[4-(methylsulfonyl)phenyl]ethyl}-1H-pyrrol-2-yl)-1,3-thiazole] | 195 | –
11 | CCOC(=O)c1cc(-c2nccs2)[nH]c1C(CC1CCOCC1)c1ccc(S(=O)(=O)C2CC2)cc1 (stereo not shown) [Example 103, Ethyl 2-{1-[4-(cyclopropylsulfonyl)phenyl]-2-(tetrahydro-2H-pyran-4-yl)ethyl}-5-(1,3-thiazol-2-yl)-1H-pyrrole-3-carboxylate] | – | 178 to 179
12 | CC(=O)N1CCN(Cc2cnc(-c3ccc(C(CC4CCOCC4)c4ccc(S(=O)(=O)C5CC5)cc4)[nH]3)s2)CC1.Cl (stereo not shown) | – | 156 to 158
13 | O=C(c1ccc(-c2ccc(C(CC3CCOCC3)c3ccc(S(=O)(=O)C4CC4)cc3)[nH]2)nc1)N1CCOCC1 (stereo not shown) [Example 121, 5-(morpholin-4-ylcarbonyl)-2-(5-[1-[4-(cyclopropylsulfonyl)phenyl]-2-(tetrahydro-2H-pyran-4-yl)ethyl]-1H-pyrrol-2-yl)pyridine] | – | 114 to 116

Now from value to molecule:

Row | Emax at 10 µM [1] [%] | melting point [°C] | Compound
14 | 148 | – | COC(OC)C(C)(O)c1cnc(-c2ccc(C(CC3CCOCC3)c3ccc(S(=O)(=O)C4CC4)cc3)[nH]2)s1 (stereo not shown) [Example 164, 2-[2-(5-{1-[4-(cyclopropylsulfonyl)phenyl]-2-(tetrahydro-2H-pyran-4-yl)ethyl}-1H-pyrrol-2-yl)-1,3-thiazol-5-yl]-1,1-dimethoxypropan-2-ol]
15 | 145 | – | O=S(=O)(c1ccc(C(CC2CCOCC2)c2ccc(-c3nnc(CN4CCOCC4)s3)[nH]2)cc1)C1CC1 (stereo not shown) [Example 228, 4-{[5-(5-{1-[4-(cyclopropylsulfonyl)phenyl]-2-(tetrahydro-2H-pyran-4-yl)ethyl}-1H-pyrrol-2-yl)-1,3,4-thiadiazol-2-yl]methyl}morpholine]
16 | 171 | – | COCC(O)c1ccc(-c2ccc(C(CC3CCOCC3)c3ccc(S(=O)(=O)C4CC4)cc3)[nH]2)nc1 (stereo not shown) [Example 177, 1-[6-(5-[1-[4-(cyclopropylsulfonyl)phenyl]-2-(tetrahydro-2H-pyran-4-yl)ethyl]-1H-pyrrol-2-yl)pyridin-3-yl]-2-methoxyethanol]
17 | 139 | – | CC(C)(O)C(O)c1ccc(-c2ccc(C(CC3CCOCC3)c3ccc(S(=O)(=O)C4CC4)cc3)[nH]2)nc1 (stereo not shown) [Example 127, 1-[6-(5-{1-[4-(cyclopropylsulfonyl)phenyl]-2-(tetrahydro-2H-pyran-4-yl)ethyl}-1H-pyrrol-2-yl)pyridin-3-yl]-2-methylpropane-1,2-diol]
18 | 129 | – | O=S(=O)(c1ccc(C(CC2CCOCC2)c2ccc(-c3nnc(CN4CC(O)C4)s3)[nH]2)cc1)C1CC1 (stereo not shown) [Example 227, 1-{[5-(5-{1-[4-(cyclopropylsulfonyl)phenyl]-2-(tetrahydro-2H-pyran-4-yl)ethyl}-1H-pyrrol-2-yl)-1,3,4-thiadiazol-2-yl]methyl}azetidin-3-ol]
19 | – | 106 to 109 | CS(=O)(=O)c1ccc(C(CC2CCOCC2)c2cnc(-c3ccccn3)[nH]2)cc1Cl (stereo not shown) [Example 183, 2-(5-{1-[3-chloro-4-(methylsulfonyl)phenyl]-2-(tetrahydro-2H-pyran-4-yl)ethyl}-1H-imidazol-2-yl)pyridine]
20 | – | 138 to 140 | CC(C)(O)C(O)c1ccc(-c2ccc(C(CC3CCOCC3)c3ccc(S(C)(=O)=O)c(Cl)c3)[nH]2)nc1 (stereo not shown) [Example 133, 1-[6-(5-{1-[3-chloro-4-(methylsulfonyl)phenyl]-2-(tetrahydro-2H-pyran-4-yl)ethyl}-1H-pyrrol-2-yl)pyridin-3-yl]-2-methylpropane-1,2-diol]
21 | – | 124 to 127 | O=C(O)Cc1ccc(-c2ccc(C(CC3CCOCC3)c3ccc(S(=O)(=O)C4CC4)cc3)[nH]2)nc1 (stereo not shown) [Example 129, [6-(5-{1-[4-(cyclopropylsulfonyl)phenyl]-2-(tetrahydro-2H-pyran-4-yl)ethyl}-1H-pyrrol-2-yl)pyridin-3-yl]acetic acid]
22 | – | 87 to 90 | CCOCCNC(=O)c1ccc(-c2ccc(C(CC3CCOCC3)c3ccc(S(=O)(=O)C4CC4)cc3)[nH]2)nc1 (stereo not shown) [Example 122, 6-(5-{1-[4-(cyclopropylsulfonyl)phenyl]-2-(tetrahydro-2H-pyran-4-yl)ethyl}-1H-pyrrol-2-yl)-N-(2-ethoxyethyl)pyridine-3-carboxamide]
23 | – | 184 to 185 | O=C1CN(Cc2cnc(-c3ccc(C(CC4CCOCC4)c4ccc(S(=O)(=O)C5CC5)cc4)[nH]3)s2)C(=O)N1 (stereo not shown) [Example 147, 1-{[2-(5-{1-[4-(cyclopropylsulfonyl)phenyl]-2-(tetrahydro-2H-pyran-4-yl)ethyl}-1H-pyrrol-2-yl)-1,3-thiazol-5-yl]methyl}imidazolidine-2,4-dione]
24 | – | 135 to 136 | CC(CC1CCOCC1)(c1ccc(S(C)(=O)=O)cn1)c1ccc(-c2ccccn2)[nH]1 (stereo not shown) [Example 245, 2-[1-methyl-1-(5-(pyridin-2-yl)-1H-pyrrol-2-yl)-2-(tetrahydro-2H-pyran-4-yl)ethyl]-5-(methylsulfonyl)pyridine]
25 | – | 196 to 197 | CC(C)(O)C(O)c1ccc(-c2ccc(/C(=C/C3CCOCC3)c3ccc(S(=O)(=O)C4CC4)cc3)[nH]2)nc1 (stereo not shown) [Example 220, 1-(6-{5-[(E)-1-[4-(cyclopropylsulfonyl)phenyl]-2-(tetrahydro-2H-pyran-4-yl)ethenyl]-1H-pyrrol-2-yl}pyridin-3-yl)-2-methylpropane-1,2-diol]
